Results taken from article PMC3038857, “Using Nuclear Receptor Activity to Stratify Hepatocarcinogens” (PLoS ONE, 2011).
Where two headings read alike, the source gives them in different places.

Experiments:
Rat Liver [1] = conditions: ref ToxRefDB, cited from earlier work
Rat Liver [2] = conditions: ref ToxRefDB, cited from earlier work; remark: listed apart in the source
Rat Liver [3] = conditions: ref ToxRefDB, cited from earlier work; remark: listed apart in the source
Mouse Liver = conditions: liver, ref ToxRefDB, cited from earlier work
PXR (NR1I2) = biological target: T1, PXR (NR1I2) (Homo sapiens, UniProt O75469); experiment: ATG_PXRE_CIS: Factorial reporter gene assay (HepG2); type: cell-based; set-up: endogenous in cells; host or cells: HepG2
T1 sequence (O75469 1-434): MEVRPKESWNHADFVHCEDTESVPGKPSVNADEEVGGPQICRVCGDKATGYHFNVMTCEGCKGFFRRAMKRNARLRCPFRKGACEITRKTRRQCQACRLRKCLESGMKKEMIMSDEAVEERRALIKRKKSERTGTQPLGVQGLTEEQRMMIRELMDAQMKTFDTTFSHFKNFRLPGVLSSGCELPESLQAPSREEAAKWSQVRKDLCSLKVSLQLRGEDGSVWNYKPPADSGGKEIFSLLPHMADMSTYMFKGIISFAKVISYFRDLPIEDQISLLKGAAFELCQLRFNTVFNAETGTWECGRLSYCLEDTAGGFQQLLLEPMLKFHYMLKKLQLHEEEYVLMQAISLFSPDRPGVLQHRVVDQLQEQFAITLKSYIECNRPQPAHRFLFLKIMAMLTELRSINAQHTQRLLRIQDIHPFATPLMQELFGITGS
Procedure: A multiple reporter transcription unit (MRTU) library consisting of 48 transcription factor binding sites was transfected into the HepG2 human liver hepatoma cell line. In addition to the cis-acting reporter genes (CIS), a modification of the approach was used to generate a trans-system (TRANS) with a mammalian one-hybrid assay consisting of an additional 25 MRTU library reporting the activity of nuclear receptor super-family members. […] These assays were performed by Attagene Inc. (Morrisville NC) under contract to EPA.
In addition to the cis-acting reporter genes (CIS), a modification of the approach was used to generate a trans-system (TRANS) with a mammalian one-hybrid assay consisting of an additional 25 MRTU library reporting the activity of nuclear receptor super-family members. […] Chemicals were then tested in the CIS and TRANS assays at seven concentrations starting at the MTC and followed by three-fold serial dilutions. These assays were performed by Attagene Inc. (Morrisville NC) under contract to EPA. Detailed description of the methods, data and analysis methods for this dataset will be presented in a separate publication.

[4] = rat chronic study, liver, coded 6 / 0, code not explained in table
[5] = mouse chronic study, coded 6 / Inf, code not explained in table
[6] = rat chronic study, liver, any lesion, coded 6 / 0, code not explained in the table
[7] = rat chronic study, liver, preneoplastic lesion, coded 6 / 0, code not explained in the table
[8] = rat chronic study, liver, neoplastic lesion, coded 6 / 0, code not explained in the table
[9] = mouse chronic study, any lesion, coded 6 / Inf, code not explained in the table

SMILES | CHR_Rat_Liver_1_AnyLesion (Rat Liver [1]; [4]) | CHR_Rat_Liver_2_PreneoplasticLesion (Rat Liver [2]; [4]) | CHR_Rat_Liver_3_NeoplasticLesion (Rat Liver [3]; [4]) | CHR_Rat_Liver_1_AnyLesion (Rat Liver [1]; [6]) | CHR_Rat_Liver_2_PreneoplasticLesion (Rat Liver [2]; [7]) | CHR_Rat_Liver_3_NeoplasticLesion (Rat Liver [3]; [8]) | also measured
CCS(=O)(=O)c1cccnc1S(=O)(=O)NC(=O)Nc1nc(OC)cc(OC)n1 [r281] | – | – | – | – | – | – | CHR_Rat_Liver_1_AnyLesion (Rat Liver [1]; chronic study, rat liver): 6; CHR_Rat_Liver_2_PreneoplasticLesion (Rat Liver [2]; chronic study, rat liver): 6; CHR_Rat_Liver_3_NeoplasticLesion (Rat Liver [3]; chronic study, rat liver): 0
CC1(C)CCC(=Cc2ccc(Cl)cc2)C1(O)Cn1cncn1 (stereo not drawn) [chemical 318] | 6 | 0 | 0 | – | – | – | CHR_Mouse_Liver_1_AnyLesion (Mouse Liver; [5]): 6
CCc1cccc(CC)c1N(COC)C(=O)CCl [Dataset S3 row 15] | – | – | – | 6 | 0 | 0 | –
COC(=O)NS(=O)(=O)c1ccc(N)cc1 [Dataset S3 row 20] | – | – | – | 0 | 0 | 0 | CHR_Mouse_Liver_1_AnyLesion (Mouse Liver; [9]): 6
CCCN(CCC)c1c([N+](=O)[O-])cc(C(F)(F)F)cc1[N+](=O)[O-] [chemical 316] | 0 | 0 | 0 | – | – | – | –
CCON=C(CC)C1=C(O)CC(c2c(C)cc(C)cc2C)CC1=O (stereo not drawn) [chemical 303] | 6 | 6 | 0 | – | – | – | –
CNC(=O)Oc1cccc2c1OC(C)(C)O2 [Dataset S3 row 25] | – | – | – | 0 | 0 | 0 | –
CNC(=O)ON=C(C)SC [row 200] | – | – | – | – | – | – | CHR_Rat_Liver_1_AnyLesion (Rat Liver [1]; chronic rat study, liver): 0; CHR_Rat_Liver_2_PreneoplasticLesion (Rat Liver [2]; chronic rat study, liver): 0; CHR_Rat_Liver_3_NeoplasticLesion (Rat Liver [3]; chronic rat study, liver): 0
CSC(=O)c1cccc2nnsc12 [Dataset S3 row 13] | – | – | – | 6 | 0 | 0 | CHR_Mouse_Liver_1_AnyLesion (Mouse Liver; [9]): 6
O=C(O)CCCOc1ccc(Cl)cc1Cl [Dataset S3 row 3] | – | – | – | 6 | 0 | 0 | CHR_Mouse_Liver_1_AnyLesion (Mouse Liver; [9]): 6
O=C(O)c1c(Cl)ccc2cc(Cl)cnc12 [r276] | – | – | – | – | – | – | CHR_Rat_Liver_1_AnyLesion (Rat Liver [1]; chronic study, rat liver): 0; CHR_Rat_Liver_2_PreneoplasticLesion (Rat Liver [2]; chronic study, rat liver): 0; CHR_Rat_Liver_3_NeoplasticLesion (Rat Liver [3]; chronic study, rat liver): 0
COC(=O)c1ccccc1S(=O)(=O)NC(=O)N(C)c1nc(C)nc(OC)n1 [chemical 308] | 0 | 0 | 0 | – | – | – | –
c1ccc2[nH]c(-c3cscn3)nc2c1 [chemical 294] | 6 | 0 | 0 | – | – | – | –
COc1cc(OC)nc(NC(=O)[N-]S(=O)(=O)c2ncccc2OCC(F)(F)F)n1.[Na+] [chemical 314] | 0 | 0 | 0 | – | – | – | –
Clc1nc(Cl)nc(Nc2ccccc2Cl)n1 [Dataset S3 row 19] | – | – | – | 0 | 0 | 0 | –
N#C/N=C1\SCCN1Cc1ccc(Cl)nc1 [chemical 295] | 6 | 0 | 0 | – | – | – | CHR_Mouse_Liver_1_AnyLesion (Mouse Liver; [5]): 6
CNC(=O)ON=CC(C)(C)SC [Dataset S3 row 16] | – | – | – | 0 | 0 | 0 | –

SMILES | CHR_Rat_Liver_1_AnyLesion (Rat Liver [1]; [4]) | CHR_Rat_Liver_2_PreneoplasticLesion (Rat Liver [2]; [4]) | CHR_Rat_Liver_3_NeoplasticLesion (Rat Liver [3]; [4]) | CHR_Rat_Liver_1_AnyLesion (Rat Liver [1]; [6]) | CHR_Rat_Liver_2_PreneoplasticLesion (Rat Liver [2]; [7]) | CHR_Rat_Liver_3_NeoplasticLesion (Rat Liver [3]; [8]) | also measured
O=C(O)COc1ccc(Cl)cc1Cl [Dataset S3 row 2] | – | – | – | 6 | 0 | 0 | –
CCC(=O)Nc1ccc(Cl)c(Cl)c1 [r258] | – | – | – | – | – | – | CHR_Rat_Liver_1_AnyLesion (Rat Liver [1]; rat, chronic study): 6; ATG_PXRE_CIS (PXR (NR1I2); HepG2): 4.337; CHR_Rat_Liver_2_PreneoplasticLesion (Rat Liver [2]; rat, chronic study): 6; CHR_Rat_Liver_3_NeoplasticLesion (Rat Liver [3]; rat, chronic study): 0
C/C(=N\C#N)N(C)Cc1ccc(Cl)nc1 [Dataset S3 row 11] | – | – | – | 6 | 0 | 0 | CHR_Mouse_Liver_1_AnyLesion (Mouse Liver; [9]): 6
Oc1cc(Cl)ccc1Oc1ccc(Cl)cc1Cl [chemical 312] | 6 | 0 | 0 | – | – | – | –
CN(C)C(=S)SSC(=S)N(C)C [chemical 302] | 6 | 6 | 0 | – | – | – | –
COC(=O)c1ccc(CNS(C)(=O)=O)cc1S(=O)(=O)NC(=O)Nc1nc(OC)cc(OC)n1 [row 194] | – | – | – | – | – | – | CHR_Rat_Liver_1_AnyLesion (Rat Liver [1]; chronic rat study, liver): 0; CHR_Mouse_Liver_1_AnyLesion (Mouse Liver; chronic mouse study): 6; CHR_Rat_Liver_2_PreneoplasticLesion (Rat Liver [2]; chronic rat study, liver): 0; CHR_Rat_Liver_3_NeoplasticLesion (Rat Liver [3]; chronic rat study, liver): 0
CCC(C)(NC(=O)c1cc(Cl)c(C)c(Cl)c1)C(=O)CCl (stereo not drawn) [chemical 320] | 0 | 0 | 0 | – | – | – | –
CCCOC(=O)NCCCN(C)C.Cl [r257] | – | – | – | – | – | – | CHR_Rat_Liver_1_AnyLesion (Rat Liver [1]; rat, chronic study): 0; CHR_Rat_Liver_2_PreneoplasticLesion (Rat Liver [2]; rat, chronic study): 0; CHR_Rat_Liver_3_NeoplasticLesion (Rat Liver [3]; rat, chronic study): 0
COCCO [row 203] | – | – | – | – | – | – | ATG_PXRE_CIS (PXR (NR1I2); HepG2): 4.602
CCNc1nc(Cl)nc(NC(C)C)n1 [Dataset S3 row 21] | – | – | – | 0 | 0 | 0 | –
CNC(=O)ON=C(SC)C(=O)N(C)C [r231] | – | – | – | – | – | – | CHR_Rat_Liver_1_AnyLesion (Rat Liver [1]; rat, chronic study): 0; ATG_PXRE_CIS (PXR (NR1I2); HepG2): 4.481; CHR_Rat_Liver_2_PreneoplasticLesion (Rat Liver [2]; rat, chronic study): 0; CHR_Rat_Liver_3_NeoplasticLesion (Rat Liver [3]; rat, chronic study): 0
CCNc1nc(NC(C)C)nc(SC)n1 [Dataset S3 row 17] | – | – | – | 6 | 6 | 6 | –
CNC(=O)N(C)c1nnc(C(C)(C)C)s1 [r293] | – | – | – | – | – | – | ATG_PXRE_CIS (PXR (NR1I2); HepG2 reporter): 4.357
CCOCN(C(=O)CCl)c1c(C)cccc1CC [Dataset S3 row 12] | – | – | – | 6 | 6 | 6 | –
CO/N=C(/C(=O)OC)c1ccccc1CON=C(C)c1cccc(C(F)(F)F)c1 [chemical 313] | 0 | 0 | 0 | – | – | – | CHR_Mouse_Liver_1_AnyLesion (Mouse Liver; [5]): 6
FC(F)C(F)(F)OCC(Cn1cncn1)c1ccc(Cl)cc1Cl (stereo not drawn) [chemical 292] | 6 | 6 | 0 | – | – | – | –
COC=C(C(=O)OC)c1ccccc1Oc1cc(Oc2ccccc2C#N)ncn1 [Dataset S3 row 24] | – | – | – | 6 | 6 | 0 | –
